Results as given in patent publication US8691777B2, “Combination therapy” (Emory University, priority 2011, dated 2014).

What was measured:
[1] = system: tsc2ang1 cells; assay: proliferation assay with tsc2ang1 cells (Coulter counter); type: cell-based, murine; conditions: rapamycin 5 nM, imatinib 10 μM, 24 hours, vs DMSO control
Experimental: 10^4 tsc2ang1 cells per well were plated in 24-well dishes in triplicate. The next day, fresh medium containing the compounds or vehicle controls was added. Cells were incubated at 37° C. Tsc2ang1 (ATCC CRL 2620) is a murine cell line derived from a cutaneous sarcoma that arose in the extremity of a mouse heterozygous for tsc2; these mice develop cutaneous sarcomas at a frequency of about 10 to 15%. The cells were cultured in complete DMEM medium supplemented with 10% FBS (Sigma Aldrich, St Louis, Mo.). […] Cells were treated with vehicle control (DMSO), rapamycin (5 nM), imatinib (10 μM) or imatinib (10 μM)+rapamycin (5 nM) (shown along X-axis) for 24 h and counted using a Coulter counter. The Y-axis represents cell number with error bars representing the SEM.

[2] = system: MMP-2; assay: gelatin zymography of conditioned media of tsc2ang1 cells; type: cell-based, murine; conditions: 24 hours, vs DMSO-treated control
Experimental: The presence and activity of specific MMP species were detected using gelatin zymography. An aliquot of each conditioned media sample was centrifuged at 4,000 rpm for 1-5 min at 4° C. and supernatant was used. A buffer of 4% SDS, 0.15 mol/L Tris (pH 6.8), 20% glycerol and 0.5% (w/v) bromophenol blue was added to the conditioned media sample. […] Gels were then incubated over night at 37° C. in substrate buffer containing 50 mmol/L Tris-HCL (pH 8), 5 mmol/L CaCl2 and 0.02% NaN3. After incubation, gels were stained for 30 min in 0.5% Coomassie Blue R-250 dissolved in acetic acid, isopropyl alcohol and water (1:3:6); destained in acetic acid, ethanol and water (1:3:6). The finalized gel was scored for the presence/absence MMP activity by a blinded evaluator and photographed.

[3] = target: PDGFR-β (Mus musculus, UniProt P05622); assay: Western blot of PDGFR-β and phospho-PDGFR-β in Tsc2ang1 cells; conditions: imatinib 10 μm, rapamycin 10 nM, vs DMSO control
Sequence of PDGFR-β (P05622 32-1098): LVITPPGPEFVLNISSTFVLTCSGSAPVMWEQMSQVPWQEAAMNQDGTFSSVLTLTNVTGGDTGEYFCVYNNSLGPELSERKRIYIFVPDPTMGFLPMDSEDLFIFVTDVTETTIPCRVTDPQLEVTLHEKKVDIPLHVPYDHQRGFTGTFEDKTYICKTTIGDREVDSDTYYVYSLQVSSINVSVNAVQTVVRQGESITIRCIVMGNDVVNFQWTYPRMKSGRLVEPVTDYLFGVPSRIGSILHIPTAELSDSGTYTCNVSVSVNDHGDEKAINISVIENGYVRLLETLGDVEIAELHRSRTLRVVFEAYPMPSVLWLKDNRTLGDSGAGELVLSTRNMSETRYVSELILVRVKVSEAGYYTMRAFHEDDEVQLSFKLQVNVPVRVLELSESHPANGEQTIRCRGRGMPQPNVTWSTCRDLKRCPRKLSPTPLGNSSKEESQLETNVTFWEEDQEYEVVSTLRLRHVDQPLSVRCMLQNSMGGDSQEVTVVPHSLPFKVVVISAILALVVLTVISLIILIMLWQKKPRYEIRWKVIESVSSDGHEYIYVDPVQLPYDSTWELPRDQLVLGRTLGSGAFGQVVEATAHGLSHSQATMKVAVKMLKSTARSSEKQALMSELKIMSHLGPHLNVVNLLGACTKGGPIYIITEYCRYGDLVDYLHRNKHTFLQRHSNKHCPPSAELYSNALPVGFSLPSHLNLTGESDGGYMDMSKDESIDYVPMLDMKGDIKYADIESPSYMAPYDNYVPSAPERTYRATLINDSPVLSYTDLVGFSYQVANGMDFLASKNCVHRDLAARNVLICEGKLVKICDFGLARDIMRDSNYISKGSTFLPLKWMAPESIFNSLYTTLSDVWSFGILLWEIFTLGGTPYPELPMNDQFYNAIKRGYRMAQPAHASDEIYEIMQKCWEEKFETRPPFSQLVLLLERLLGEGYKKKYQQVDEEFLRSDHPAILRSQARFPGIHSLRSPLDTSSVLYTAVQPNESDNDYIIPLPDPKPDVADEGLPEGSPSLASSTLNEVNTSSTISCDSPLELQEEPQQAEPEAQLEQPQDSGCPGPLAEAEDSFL
Experimental: The impact of imatinib (10 μm), rapamycin (10 nM), and a combination of rapamycin and imatinib on the phosphorylated PDGFR-β signaling pathway was tested in Tsc2ang1cells.
Lysates of Tsc2ang1 cells treated with vehicle or indicated drugs were prepared in NP-40 lysis buffer (1% NP-40, 150 mmol/L NaCl, 10% glycerol, 20 mmol/L HEPES, 1 mmol/L phenylmethylsulfonyl fluoride, 2.5 mmol/L EDTA, 100 μmol/L Na3VO4, and 1% aprotinin) Protein concentration in cleared lysates was determined using an Eppendorf BioPhotometer. Samples were resolved using SDS-PAGE (National Diagnostics) and transferred to nitrocellulose membranes. The membranes were blocked with 5% nonfat dry milk in 10 mmol/L Tris/0.1% Tween 20/100 mmol/L NaCl and incubated with primary antibodies followed by horseradish peroxidase-conjugated secondary antibody. The immunoreactive bands were visualized by enhanced chemiluminescence (Amersham Biosciences). The antibodies used were: Phospho-PDGFR-β antibody (Tyr 1021) (Cell signaling Laboratories); Phospho-PDGFR-β antibody (Tyr 1009) (Cell Signaling Laboratories); Aurora kinase A antibody (4718) (Cell signaling Laboratories), Aurorakinase B (3094) antibody (Cell signaling Laboratories) monoclonal anti-β-tubulin antibody (Sigma) was used as a loading control.

## Cc1ccc(NC(=O)c2ccc(CN3CCN(C)CC3)cc2)cc1Nc1nccc(-c2cccnc2)n1 [imatinib]
[1]
  viable cell number: decrease in the viable cell numbers
[2]
  MMP-2 gelatinase activity: decrease in the level of MMP-2
[3]
  PDGFR β phosphorylation: downregulation of PDGFR β phosphorylation
